Read-outs that look alike come from different tables or passages of the source.
What was measured:
Type in all cases: in vivo
[1] = test system: Abutilon theophrasti (ABUTH); assay: Post-emergence herbicidal action against ABUTH; conditions: visual rating about 3 weeks after treatment vs untreated controls (100% = plants have died, 0% = like control plants)
Summary of the method: (§1)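 Rates were 320 g/ha or below, applied as aqueous WP/EC spray with 0.5% additive (600 l/ha) onto one-leaf-stage plants. About 3 weeks later in the greenhouse, damage was scored visually against untreated plants on a 0–100% scale, where 100% means plants died.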

[2] = test system: Alopecurus myosuroides (ALOMY); assay: Post-emergence herbicidal action against ALOMY; conditions: visual rating about 3 weeks after treatment vs untreated controls (100% = plants have died, 0% = like control plants)
Summary of the method: as §1

[3] = test system: Amaranthus retroflexus (AMARE); assay: Post-emergence herbicidal action against AMARE
Summary of the method: as §1

Avena fatua (AVEFA) = assay: Post-emergence herbicidal action against AVEFA; conditions: 320 g/ha, visual rating about 3 weeks after treatment
Summary of the method: as §1

[4] = test system: Digitaria sanguinalis (DIGSA); assay: Post-emergence herbicidal action against DIGSA; conditions: visual rating about 3 weeks after treatment
Summary of the method: as §1

[5] = test system: Echinochloa crus-galli (ECHCG); assay: Post-emergence herbicidal action against ECHCG
Summary of the method: as §1

Lolium rigidum (LOLRI) = assay: Post-emergence herbicidal action against LOLRI
Summary of the method: as §1

[6] = test system: Matricaria inodora (MATIN); assay: Post-emergence herbicidal action against MATIN
Summary of the method: as §1

[7] = test system: Pharbitis purpurea (PHBPU); assay: Post-emergence herbicidal action against PHBPU
Summary of the method: as §1

[8] = test system: Polygonum convolvulus (POLCO); assay: Post-emergence herbicidal action against POLCO
Summary of the method: as §1

[9] = test system: Verconica persica (VERPE); assay: Post-emergence herbicidal action against VERPE
Summary of the method: as §1

Viola tricolor (VIOTR) = assay: Post-emergence herbicidal action against VIOTR
Summary of the method: as §1

Oryza sativa (ORYSA) = conditions: crop plant compatibility
Summary of the method: (§2)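 Visual rating (% effect vs. untreated plants; 100% = plant death) made about 3 weeks after treatment. Plants had been sprayed at one-leaf stage, 2–3 weeks post-sowing, with aqueous WP/EC preparations containing 0.5% additive, 600 l/ha water volume; a, b, c mark dose levels.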

[10] = test system: Triticum aestivum (TRZAS); conditions: crop plant compatibility, 20 g/ha, effect vs untreated controls
Summary of the method: as §2

Zea mays (ZEAMX) = conditions: for Post-emergence action against ZEAMX in % (crop plant compatibility): 20 g/ha, effect in comparison to untreated controls; for Post-emergence action against ZEAMX in %: crop plant compatibility, effect vs untreated controls
Summary of the method: as §2

Setaria viridis (SETVI) = assay: Post-emergence herbicidal action against SETVI
Summary of the method: as §1

[11] = 80 g/ha, visual rating about 3 weeks after treatment vs untreated controls (100% = plants have died, 0% = like control plants)
[12] = 320 g/ha, visual rating about 3 weeks after treatment
[13] = 20 g/ha, effect vs untreated controls
[14] = 80 g/ha, effect in comparison to untreated controls

SMILES	Post-emergence action against ABUTH in % ([1]; 80 g/ha)	Post-emergence action against ABUTH in % ([1]; 320 g/ha)	Post-emergence action against ALOMY in % ([2]; 320 g/ha)	Post-emergence action against AMARE in % [3, 12]	Post-emergence action against AVEFA in % (Avena fatua (AVEFA))	Post-emergence action against DIGSA in % ([4]; 320 g/ha)	Post-emergence action against ECHCG in % ([5]; dosage 320 g/ha)	Post-emergence action against LOLRI in % (Lolium rigidum (LOLRI); dosage 320 g/ha)	Post-emergence action against MATIN in % ([6]; dosage 320 g/ha)	Post-emergence action against PHBPU in % ([7]; dosage 320 g/ha)	Post-emergence action against POLCO in % ([8]; dosage 320 g/ha)	Post-emergence action against VERPE in % ([9]; 320 g/ha, VERPE)	Post-emergence action against VERPE in % ([9]; dosage 80 g/ha)	Post-emergence action against VIOTR in % (Viola tricolor (VIOTR); 80 g/ha)	Post-emergence action against VIOTR in % (Viola tricolor (VIOTR); 320 g/ha)	Post-emergence action against ORYSA in % (Oryza sativa (ORYSA); [13])	Post-emergence action against TRZAS in % [10]	Post-emergence action against ZEAMX in % (crop plant compatibility) (Zea mays (ZEAMX))	Post-emergence action against PHBPU in % ([7]; dosage 80 g/ha)	Post-emergence action against SETVI in % (Setaria viridis (SETVI); dosage 320 g/ha)	other results
COC(=O)COc1nn(-c2ncccc2F)c(-c2ccnc(F)c2)c1Br [Example I-130]	80%	90%	90%	90%	90%	90%	90%	90%	80%	80%	80%	80%	80%	90%	90%	0%	20%	0%			Post-emergence action against AMARE in % [3, 11]: 80%; Post-emergence action against DIGSA in % ([4]; 80 g/ha): 80%; Post-emergence action against ZEAMX in % (Zea mays (ZEAMX); 80 g/ha): 0%; Post-emergence action against ZEAMX in % (Zea mays (ZEAMX); 320 g/ha): 20%
CCOC(=O)[C@@H](C)Oc1nn(-c2ncccc2F)c(-c2cncc(F)c2)c1Cl [Example I-145]	90%	90%	90%	80%	90%	90%	90%	90%	90%	90%	90%	90%	90%	90%	90%	0%	20%		90%	90%	Post-emergence action against ALOMY in % ([2]; 80 g/ha): 80%; Post-emergence action against AMARE in % [3, 11]: 80%; Post-emergence action against ECHCG in % ([5]; dosage 80 g/ha): 90%; Post-emergence action against LOLRI in % (Lolium rigidum (LOLRI); dosage 80 g/ha): 90%; Post-emergence action against MATIN in % ([6]; dosage 80 g/ha): 80%; Post-emergence action against POLCO in % ([8]; dosage 80 g/ha): 90%; Post-emergence action against SETVI in % (Setaria viridis (SETVI); dosage 80 g/ha): 90%
C[C@@H](Oc1nn(-c2ncccc2F)c(-c2cncc(F)c2)c1Cl)C(=O)O [Example I-165]	90%	90%	100%	80%	90%	90%	90%	100%	90%	90%	90%	90%	90%	90%	90%	0%	20%		80%	90%	Post-emergence action against DIGSA in % ([4]; 80 g/ha): 90%; Post-emergence action against ECHCG in % ([5]; dosage 80 g/ha): 90%; Post-emergence action against MATIN in % ([6]; dosage 80 g/ha): 80%; Post-emergence action against POLCO in % ([8]; dosage 80 g/ha): 80%; Post-emergence action against SETVI in % (Setaria viridis (SETVI); dosage 80 g/ha): 90%
CCOC(=O)COc1nn(-c2ncccc2C)c(-c2cncc(F)c2)c1Cl [Example I-181]	80%	80%	90%	90%	90%	90%	100%	80%	80%	100%	80%	90%	90%	90%	90%	0%	20%	20%	90%	90%	Post-emergence action against ALOMY in % ([2]; 80 g/ha): 80%; Post-emergence action against AMARE in % [3, 11]: 80%; Post-emergence action against DIGSA in % ([4]; 80 g/ha): 90%; Post-emergence action against ECHCG in % ([5]; dosage 80 g/ha): 90%; Post-emergence action against MATIN in % ([6]; dosage 80 g/ha): 80%; Post-emergence action against POLCO in % ([8]; dosage 80 g/ha): 80%; Post-emergence action against SETVI in % (Setaria viridis (SETVI); dosage 80 g/ha): 80%
Cc1cccnc1-n1nc(OCC(=O)O)c(Cl)c1-c1cncc(F)c1 [Example I-182]	80%	80%	80%	90%	90%	100%	90%		90%	90%	90%	90%	80%	80%	90%	10%	10%	10%	90%	80%	Post-emergence action against AMARE in % [3, 11]: 80%; Post-emergence action against DIGSA in % ([4]; 80 g/ha): 90%; Post-emergence action against ECHCG in % ([5]; dosage 80 g/ha): 90%; Post-emergence action against MATIN in % ([6]; dosage 80 g/ha): 80%; Post-emergence action against POLCO in % ([8]; dosage 80 g/ha): 80%; Post-emergence action against SETVI in % (Setaria viridis (SETVI); dosage 80 g/ha): 80%; Post-emergence action against ZEAMX in % (Zea mays (ZEAMX); 80 g/ha): 20%
Cc1ncccc1-n1nc(OCC(=O)OCC2CCCO2)c(Br)c1-c1cncc(F)c1 (stereo not shown) [II-43]		80%	100%	90%	90%	80%	90%		80%	90%	80%	90%	90%	90%	90%	0%	10%	0%	80%	90%	Post-emergence action against ORYSA in % (Oryza sativa (ORYSA); [14]): 0%; Post-emergence action against ORYSA in % (Oryza sativa (ORYSA); 320 g/ha, effect in comparison to untreated controls): 0%; Post-emergence action against ZEAMX in % (Zea mays (ZEAMX); 80 g/ha): 20%
CCOC(=O)COc1nn(-c2ccncc2F)c(-c2ccc(F)nc2)c1Br [III-29]		80%	90%			90%	80%	80%	90%	90%	80%	80%				10%	20%	10%	80%	90%	Post-emergence action against ECHCG in % ([5]; dosage 80 g/ha): 80%; Post-emergence action against MATIN in % ([6]; dosage 80 g/ha): 80%; Post-emergence action against ORYSA in % (Oryza sativa (ORYSA); [14]): 20%

From patent US20240041042A1, “1-(PYRIDYL)-5-AZINYLPYRAZOLE DERIVATIVES, AND THEIR USE FOR CONTROL OF UNDESIRED PLANT GROWTH” (Bayer Aktiengesellschaft, priority 2020, published 2024)
